# In publication PMC2725291, “Genetic and Molecular Basis of Individual Differences in Human Umami Taste Perception” (PLoS ONE, 2009):
# System: Mock-transfected HEK cells
# Test: Ca2+ imaging in mock-transfected HEK cells
# Type: cell-based, human
# Conditions: without the three genes, Gα16-i3 alone, Gα16-i3/TAS1R1 without TAS1R3, Gα16-i3/TAS1R3 without TAS1R1
# Procedure: HEK293 cells were cultured at 37°C under a humidified atmosphere containing 5% CO2 in Dulbecco's modified Eagle's medium supplemented with 10% fetal bovine serum. To obtain reproducible Ca^2+ responses, cells were split every 2 days before cells become confluent. Cells were discarded after 2 months of passages and new cells were prepared from frozen-stock. For calcium imaging experiments, cells were seeded onto a 35 mm recording chamber or poly-D-lysine coated 96-well black-wall, clear-bottom recording plates. […] The transfection efficiencies were estimated by visualizing DsRed fluorescence (data not shown) or by immunocytochemistry of TAS1R3, and were typically 50∼55% (Figure S4). […]
# Two Ca^2+ imaging systems were used. […] Taste solutions diluted in HBSS were applied sequentially to the cells for 30 s with a peristaltic pump at a flow rate of 1.5 ml/min, and fluorescence images were obtained using a S Fluor ×20/0.75 objective lens (Nikon) via a cooled-CCD camera (C6790, Hamamatsu Photonics) fitted to a TE300 microscope (Nikon). Acquisition and analysis of these fluorescence images used AquaCosmos software (v. 1.3, Hamamatsu Photonics). […] Responses were measured from 30 individual responding cells. […]
structure (smiles),measurement,value
"N[C@@H](CCC(=O)O)C(=O)[O-].[Na+] [MSG, monosodium glutamate]",Ca2+ response of mock-transfected HEK cells,did not respond
